For one assay, the target named is PCP receptor. Put plainly: [3H]TCP radioreceptor assay (binding to PCP recognition sites). More on the design: species or system rat (male Sprague-Dawley, whole brain). To be noted: for Ki: [3H]TCP approx. 1 nM, rat brain membranes, mean of at least two determinations; for [3H]TCP percent inhibition @ 10 μm: inhibition of [3H]TCP binding at 10 μM. The method, boiled down:
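Rat whole-brain membranes (Tris-HCl, pH 7.7), 0.5 mg protein/tube, incubated with ~1 nM [3H]TCP for 25 min at room temperature; non-specific binding defined with 100 μM PCP. Bound ligand collected by filtration and counted by scintillation; Ki from at least two determinations, or % inhibition at 10 μM.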

The subject of assay [1] is cultured cortical neurons. Put plainly: Antagonism of NMDA-induced neurotoxicity in cultured cortical neurons (LDH release). It counts as cell-based, mouse (Swiss-Webster). As to conditions: 500 μM NMDA, 30 min exposure, LDH 24 h later. The protocol:
Antagonism of NMDA-induced Neurotoxicity in Cultured Neurons
Preparation of Cultured Cortical Neurons
Pregnant, Swiss-Webster mice were obtained from Taconic Farms (Germantown, New York) and sacrificed 16 days post conception. Fetuses were removed and placed in a sterile dish containing Hank's balanced salt solution (HBSS), pH 7.4. Brain cortices were dissected, meninges were removed, the tissue was minced and placed into a solution of HBSS containing 0.25% (w/v) trypsin at 37° C. for 15 minutes. Tissue was then triturated with a sterile pasteur pipet, diluted with minimal essential media (Gibco 330-1430), pH 7.4, supplemented with 10% horse serum, 10% fetal calf serum, 2 mM 1-glutamine, 21 mM d-glucose, 2.2 g/L sodium bicarbonate, 1000 U/mL penicillin, and 1,000 μg/mL streptomycin. Cells were plated onto Falcon primaria 96 well plates at a final density of 50,000 cells/well and incubated at 37 °C in the presence of 5% (v/v) carbon dioxide. After 5 days, plating media was replaced with maintenance media containing minimal essential media (Gibco 330-1430), pH 7.4, supplemented with 10% horse serum, […], 21 mM d-glucose, 2.2 g/L sodium bicarbonate, 1,000 U/mL penicillin, 1,000 μg/mL streptomycin, and 10 μM cytosine arabinoside. On days 7 and 10, media was replaced with maintenance media as above lacking the cytosine arabinoside. Experiments were conducted on day 13.
Neuroprotection Assessment
Day 13 cultured cortical neurons were washed twice with minimal essential media, pH 7.4 and then exposed for 30 minutes to 500 μM N-methyl-D-aspartic acid (NMDA) with or without varying concentrations of test agents. […] MK-801 and test agents were prepared in minimal essential media supplemented with 21 mM d-glucose and 2.2 g/L sodium bicarbonate (MEM). After 30 minutes, media was replaced with MEM alone. Exposure of neurons to test agents was limited to the NMDA treatment period. Twenty-four hours after removal of NMDA, an aliquot of media from each well was removed for assessment of cell injury by determining lactate dehydrogenase (LDH) activity by the method of Wroblewski and LaDue Proc. Soc. Exp. Biol. Med. 1955, 90, 210-213. The results are expressed as an IC50 (in nM) value (concentration causing 50% inhibition) for the antagonism of NMDA--inducedneurotoxicity. Table 3 summarizes the results obtained from the testing of representative compounds of the invention in the [^3 H]TCP radioreceptor assay as well as in the antagonism of NMDA-induced neurotoxicity in cultured neurons.
Background: Release of lactate dehydrogenase indicates damage to the cell membrane.

The term Ki denotes a dissociation constant, usually derived from enzyme kinetics or from competition with a known ligand. One may read the IC50 as the concentration needed to halve the response being measured. With `CC12CC(c3ccccc3)(c3ccccc3)C(c3ccccc31)c1cccc[n+]12` (stereo not drawn) [19(b), 6,11-ethano-12,12-diphenyl-6-methyl-6,11-dihydro-benzo[b]quinolizinium. Chloride], on PCP receptor, the Ki worked out at 0.0068 µM. Moreover, 0.102 µM corresponded to half-maximal inhibition in assay [1] (Mus musculus, Cortical neurone) (IC50).

Consider `c1csc(C2(c3cccs3)CC3c4ccccc4C2c2cccc[n+]23)c1` (stereo not drawn) [48(b), 6,11-ethano-12,12-di(2-thienyl)-6,11-dihydrobenzo[b]quinolizinium chloride], for which the Ki on PCP receptor stood at 0.00208 µM. In addition, the half-maximal inhibitory concentration (IC50) in assay [1] was 0.023 µM. The matching figures for `CC1C2c3ccccc3C(c3cccc[n+]32)C1(c1ccoc1)c1ccoc1` (single isomer, unassigned) [181(d), 6,11-ethano-12,12-di(3-furyl)-13-methyl-6,11-dihydrobenzo[b]quinolizinium hexafluorophosphate]: 0.00615 µM and 0.055 µM.

`c1ccc2c(c1)C1CC(c3ccsc3)(c3ccsc3)C2c2cccc[n+]21` (stereo not drawn) [52(F), 6,11-ethanol 12,12-di(3-thienyl)-6,11-dihydrobenzo[b]quinolizinium chloride] yielded a Ki on PCP receptor of 0.00182 µM. This compound also showed an IC50 in assay [1] (Mus musculus, Cortical neurone) of 0.039 µM.

The compound `CC1C2c3ccccc3C(c3cccc[n+]32)C1(c1ccoc1)c1ccoc1` (single isomer, unassigned) [181(c), 6,11-ethano-12,12-di(3-furyl)-13-methyl-6,11-dihydrobenzo[b]quinolizinium hexafluorophosphate] showed a Ki on PCP receptor of 0.00636 µM. The same compound showed an IC50 in assay [1] of 0.0114 µM.

Regarding `[O-][Cl+3]([O-])([O-])[O-].c1ccc2c(c1)C1CC(c3ccoc3)(c3ccn[nH]3)C2c2cccc[n+]21` (single isomer, unassigned) [185(b), 6,11-ethano-12-(3-furyl)-12-(5-pyrazolyl]-6,11-dihydrobenzo[b]quinolizinium perchlorate], affinity at PCP receptor was put at a Ki of 0.00629 µM. Besides, in assay [1], half-maximal inhibition (IC50) required 0.053 µM.

On to `[O-][Cl+3]([O-])([O-])[O-].c1ccc2c(c1)C1CC(c3ccoc3)(c3ccn[nH]3)C2c2cccc[n+]21` (single isomer, unassigned) [185(a), 6,11-ethano-12-(3-furyl)-12-(5-pyrazolyl]-6,11-dihydrobenzo[b]quinolizinium perchlorate], for which the inhibition constant Ki on PCP receptor was determined as 0.00455 µM. Besides, the IC50 in assay [1] (Mus musculus, Cortical neurone) was 0.0326 µM. On PCP receptor, `CC12CC(c3ccoc3)(c3ccoc3)C(c3ccccc31)c1cccc[n+]12` (stereo not drawn) [50(b), 6,11ethano-12,12-di(3-furanyl)-6-methyl-6,11-dihydrobenzo[b]quinolizinilium chloride] registered a Ki of 0.00124 µM. Also, the midpoint of inhibition in assay [1] (Mus musculus, Cortical neurone), the IC50, lay at 0.022 µM.

Compound `CC12c3ccccc3C(c3cccc[n+]31)C(c1ccccc1)(c1ccccc1)C21CC1` (stereo not drawn) [51(c), 6,11-ethano-12,12-diphenyl-6-methyl-13,13-(spirocyclopropane)-6,11-dihydrobenzo[b]quinolizinium chloride] had an inhibitory constant (Ki) at PCP receptor of 0.0223 µM. Besides, the IC50 in assay [1] (Mus musculus, Cortical neurone) was 0.083 µM.

Regarding `N#CC12CC(c3ccoc3)(c3ccoc3)C(c3ccccc31)c1cccc[n+]12` (stereo not drawn) [171(b), 6,11-ethano-12,12-di(3-furyl)-6-cyano-6,11-dihydrobenzo[b]quinolizinium chloride], on PCP receptor, the Ki came out at 0.0102 µM. Further, the IC50 in assay [1] (Mus musculus, Cortical neurone) was 0.0265 µM.

`Oc1ccc2c(c1)C1c3cccc[n+]3C2CC1(c1ccoc1)c1ccoc1` (stereo not drawn) [Example 193, 12,12-di(3-furyl)-9-hydroxy-6,11-ethano-6,11-dihydrobenzo[b]quinolizinium chloride] returned a Ki on PCP receptor of 0.00213 µM. The same compound came in with an IC50 in assay [1] (Mus musculus, Cortical neurone) of 0.0118 µM.

`CCOC1(c2ccoc2)CC2c3ccccc3C1c1cccc[n+]12` (stereo not drawn) [11(g), 6,11-ethano-12-(3-furyl)-12-ethoxy-6,11-dihydrobenzo[b]quinolizinium chloride]: the Ki on PCP receptor was 0.018 µM. For the same compound, the concentration for half-maximal inhibition (IC50) in assay [1] was determined as 2 µM.

As to `CC(=O)Oc1cccc2c1C1c3cccc[n+]3C2CC1(c1ccoc1)c1ccoc1` (stereo not drawn) [Example 169, 6,11-ethano-12,12-di(3-furyl)-10-acetyloxy-6,11-dihydrobenzo-[b]quinolizinium chloride], at PCP receptor, the affinity, expressed as Ki, was 0.00358 µM. In turn, `Fc1ccc(C2(c3ccc(F)cc3)CC3c4ccccc4C2c2cccc[n+]23)cc1` (stereo not drawn) [31(c), 6,11-ethano-12,12-di(p-fluorophenyl)-6,11-dihydrobenzo[b]-quinolizinium chloride] came in with a Ki at PCP receptor of 2.21 µM. As for `Fc1ccc2c(c1)C1c3cccc[n+]3C2CC1(c1cc[nH]n1)c1cc[nH]n1` (stereo not drawn) [198(b), 6,11-ethano-12,12-di-(pyrazol-3-yl)]-9-fluoro-6,11-dihydrobenzo-[b]quinolizinium chloride], the Ki on PCP receptor was 0.0117 µM.

Consider `COc1ccc(CN(c2ccc(C3(c4ccc(N(Cc5ccc(OC)cc5)S(C)(=O)=O)cc4)CC4c5ccccc5C3c3cccc[n+]34)cc2)S(C)(=O)=O)cc1` (stereo not drawn) [29(c), 6,11-ethano-12,12-di[4-(N-p-methoxybenzyl-N-methylsulfonylamino)phenyl]-6,11-dihydrobenzo[b]quinolizinium perchlorate 1/2 ethyl acetate], for which the “[3H]TCP percent inhibition @ 10 μm” value in the assay on PCP receptor was 31%.

`CCOC1(c2ccoc2)CC2(C)c3ccccc3C1c1cccc[n+]12` [13(b), 6,11-ethano-12-(3-furyl)-12-ethoxy-6-methyl-6,11-dihydrobenzo[b]quinolizinium monobenzoyl-D-tartarate]: the affinity on PCP receptor corresponds to a Ki of 0.045 µM. As for `Cc1ccc(S(=O)(=O)n2nccc2C2(c3ccoc3)CC3c4cccc(O)c4C2c2cccc[n+]23)cc1` (single isomer, unassigned) [Example 199(a), 6,11-ethano-12-(3-furyl)-12-[1-(p-toluenesulfon-yl)-pyrazol-5-yl]-10-hydroxy-6,11-dihydrobenzo[b]quinolizinium perchlorate], the “[3H]TCP percent inhibition @ 10 μm” value in the assay with PCP receptor is recorded as 27%. Regarding `COc1ccc2c(c1)C1c3cccc[n+]3C2CC1(c1ccccc1)c1ccccc1` (stereo not drawn) [27(E), 6,11-ethano-12,12-diphenyl-9-methoxy-6,111-dihydrobenzo[b]quinolizinium chloride 1/2 hydrate], the affinity at PCP receptor corresponds to a Ki of 0.0104 µM. In turn, `c1ccc(C2(c3ccccc3)C3c4ccccc4C([n+]4ccccc43)C23CC3)cc1` (stereo not drawn) [22(b), 6,11-ethano-12,12-diphenyl-13,13-spirocyclopropyl-6,11-dihydrobenzo[b]quinolizinium chloride] returned a Ki on PCP receptor of 0.00907 µM. The same measure, in the same setting: to “6,11-ethano-12,12-di(3-furyl)-10-stearyloxy-6,11-dihydrobenzo[b]quinolizinium chloride [Example 163]” belongs 0.00754 µM; to `COc1c(Cl)ccc2c1C1c3cccc[n+]3C2CC1(c1ccoc1)c1ccoc1` (stereo not drawn) [187(g), 6,11-ethano-12,12-di(3-furyl)-9-chloro-10-methoxy-6,11-dihydrobenzo[b]quinolizinium chloride], 0.0637 µM; to `Oc1ccc2[n+](c1)C1CC(c3ccoc3)(c3ccoc3)C2c2ccccc21` (stereo not drawn) [Example 191(f), 12,12-di(3-furyl)-3-hydroxy-6,11-ethano-6,11-dihydrobenzo[b]quinolizinium chloride], 1.53 µM. In turn, `CCCCCCCCOC(=O)CC(C)(C)C(=O)Oc1cccc2c1C1c3cccc[n+]3C2CC1(c1ccoc1)c1ccoc1` (stereo not drawn) [194(d), 12,12-di(3-furyl)-10-(OC(O)C(CH3)2 CH2 C(O)OOctyl)-6,11-ethano-6,11-dihydrobenzo[b]quinolizinium chloride] came in with a Ki at PCP receptor of 0.0713 µM.
